Test results as given in ChEMBL document CHEMBL1909592, “Targeting the prostaglandin F2α receptor for preventing preterm labor with azapeptide tocolytics” (J Med Chem, 2011).
Active and inactive are the calls of the source. The rule behind the calls is not given here. Square brackets hold non-standard residues; d marks the D form. Peptide text beside a SMILES is read from it. * marks the point of attachment. dCit = NC(=O)NCCC[C@@H](N)C(=O)O; 3Pal = N[C@@H](Cc1cccnc1)C(=O)O; β3hF = N[C@H](CC(=O)O)Cc1ccccc1; PhAc = O=C(Cc1ccccc1)*; azaGly = NNC(=O)O

How the values were obtained:
[1] = target: Prostaglandin F2-alpha receptor (Homo sapiens) (UniProt P43088); assay: Antagonist activity at human FP receptor expressed in HEK293 cells assessed as inhibition of PGF-2alpha-mediated cell ruffling at 1 uM after 30 mins by immunofluorescence assay (reference value: 65.7 +/- 1.6 %); type: functional, cell-based
Prostaglandin F2-alpha receptor (Homo sapiens), sequence (P43088 whole entry): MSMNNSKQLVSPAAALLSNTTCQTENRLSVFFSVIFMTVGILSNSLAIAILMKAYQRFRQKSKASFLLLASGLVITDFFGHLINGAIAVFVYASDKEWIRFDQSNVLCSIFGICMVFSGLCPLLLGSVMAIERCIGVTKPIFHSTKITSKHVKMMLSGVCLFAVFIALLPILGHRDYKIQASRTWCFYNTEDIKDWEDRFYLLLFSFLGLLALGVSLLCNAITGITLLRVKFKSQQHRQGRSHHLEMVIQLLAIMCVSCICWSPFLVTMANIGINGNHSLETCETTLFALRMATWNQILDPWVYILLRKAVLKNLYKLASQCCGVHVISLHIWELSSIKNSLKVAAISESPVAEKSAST

[2] = target: Prostaglandin F2-alpha receptor (Homo sapiens) (UniProt P43088); assay: Antagonist activity at human FP receptor expressed in HEK293 cells assessed as ERK1/2 activation at 1 uM after 30 mins by Western blot analysis; type: functional, cell-based
[3] = target: Prostaglandin F2-alpha receptor (Homo sapiens) (UniProt P43088); assay: Antagonist activity at human FP receptor expressed in HEK293 cells assessed as inhibition of cell ruffling at 1 uM after 30 mins by immunofluorescence assay; type: functional, cell-based
[4] = target: Prostaglandin F2-alpha receptor (Homo sapiens) (UniProt P43088); assay: Antagonist activity at human FP receptor expressed in HEK293 cells assessed as potentiation of PGF-2alpha-induced Galphaq-mediated PKC/ERK1/2 activation at 1 uM after 30 mins by Western blot analysis; type: functional, cell-based
[5] = target: Prostaglandin F2-alpha receptor (Mus musculus) (UniProt P43117); assay: Antagonist activity at FP receptor in postpartum mouse myometrial strip assessed as inhibition of PGF-2alpha-induced uterine contractions; type: functional
Prostaglandin F2-alpha receptor (Mus musculus), sequence (P43117 whole entry): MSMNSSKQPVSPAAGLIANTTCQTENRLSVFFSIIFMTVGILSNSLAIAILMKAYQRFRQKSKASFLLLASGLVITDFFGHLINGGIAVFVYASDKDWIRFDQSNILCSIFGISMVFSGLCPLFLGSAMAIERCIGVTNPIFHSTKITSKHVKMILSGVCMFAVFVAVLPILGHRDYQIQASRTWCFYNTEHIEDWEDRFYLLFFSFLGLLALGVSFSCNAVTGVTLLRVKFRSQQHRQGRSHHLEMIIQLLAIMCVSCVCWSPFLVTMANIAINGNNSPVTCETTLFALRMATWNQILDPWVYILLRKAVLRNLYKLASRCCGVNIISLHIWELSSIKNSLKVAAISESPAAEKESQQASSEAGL

[6] = target: Prostaglandin F2-alpha receptor (Bos taurus) (UniProt P37289); conditions: 100 uM
Prostaglandin F2-alpha receptor (Bos taurus), sequence (P37289 whole entry): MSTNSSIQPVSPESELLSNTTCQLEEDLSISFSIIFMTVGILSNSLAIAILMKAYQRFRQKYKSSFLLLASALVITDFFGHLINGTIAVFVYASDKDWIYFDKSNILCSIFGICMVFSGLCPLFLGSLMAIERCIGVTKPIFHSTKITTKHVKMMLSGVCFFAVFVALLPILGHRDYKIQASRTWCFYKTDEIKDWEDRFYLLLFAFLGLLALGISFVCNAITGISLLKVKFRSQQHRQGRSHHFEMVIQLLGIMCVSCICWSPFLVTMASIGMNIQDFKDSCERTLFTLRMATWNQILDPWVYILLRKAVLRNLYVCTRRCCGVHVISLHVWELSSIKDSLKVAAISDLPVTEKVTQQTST
Description: Antagonist activity at FP receptor in bovine myometrial strip assessed as inhibition of PGF-2alpha-induced contractions at 100 uM

[7] = target: Prostaglandin F2-alpha receptor (Bos taurus, UniProt P37289); assay: Antagonist activity at FP receptor in bovine myometrial strip assessed as inhibition of PGF-2alpha-induced contractions; type: functional
Prostaglandin F2-alpha receptor (Bos taurus, UniProt P37289), sequence (P37289 whole entry): as above

Mus musculus [8] = species on record: Mus musculus; assay: Inhibition of PGF-2alpha-induced uterine contractions in pregnant mouse assessed as time delay in preterm labor at 0.8 mg/day; type: functional
[9] = target: Prostaglandin F2-alpha receptor (Ovis aries, UniProt Q28905); assay: Antagonist activity at FP receptor in sheep myometrial strip assessed as inhibition of PGF-2alpha-induced contractions; type: functional
Prostaglandin F2-alpha receptor (Ovis aries, UniProt Q28905), sequence (Q28905 whole entry): as the sequence (P37289 whole entry) above, with S5N, I7V, E13A, E192Q, D340N counted along it

[10] = target: Prostaglandin F2-alpha receptor (Mus musculus) (UniProt P43117); conditions: 100 uM
Description: Antagonist activity at FP receptor in mouse myometrial strip assessed as inhibition of PGF-2alpha-induced contractions at 100 uM

[11] = target: Prostaglandin F2-alpha receptor (Ovis aries) (UniProt Q28905); conditions: 100 uM
Prostaglandin F2-alpha receptor (Ovis aries), sequence (Q28905 whole entry): as the sequence (P37289 whole entry) above, with S5N, I7V, E13A, E192Q, D340N counted along it
Description: Antagonist activity at FP receptor in sheep myometrial strip assessed as inhibition of PGF-2alpha-induced contractions at 100 uM

[12] = target: Prostaglandin F2-alpha receptor (Mus musculus, UniProt P43117); assay: Antagonist activity at FP receptor in mouse myometrial strip assessed as inhibition of PGF-2alpha-induced contractions; type: functional
Prostaglandin F2-alpha receptor (Mus musculus, UniProt P43117), sequence (P43117 whole entry): as the sequence (P43117 whole entry) above

[13] = Antagonist activity at FP receptor in pig retina assessed as inhibition of PGF-2alpha induced microvascular contraction at 100 uM; type: functional; conditions: Sus scrofa
[14] = Antagonist activity at FP receptor in pig retina assessed as inhibition of PGF-2alpha induced microvascular contraction; type: functional, tissue-based, Sus scrofa
Mus musculus [15] = assay: Inhibition of LPS-induced uterine contractions in pregnant CD-1 mouse assessed as time delay in preterm labor at 0.1 mg, ip administered as bolus dose immediately followed by 10 mg, sc; type: functional
Mus musculus [16] = assay: Inhibition of PGF-2alpha-induced uterine contractions in pregnant CD-1 mouse assessed as time delay in preterm labor at 0.1 mg, ip administered as bolus dose immediately followed by 10 mg, sc; type: functional

Row | SMILES | inhibition [1] | Activity [4] | inhibition [5] | also measured
1 | O=C(O)C[C@H](Cc1ccccc1)NC(=O)[C@H](Cc1cccnc1)NC(=O)[C@@H]1CCCN1C(=O)N(Cc1ccccc1)NC(=O)Cc1ccccc1 | 37.4% | Active | Active | Activity [2]: inactive; inhibition [3]: inactive
2 | NC(=O)NCCC[C@@H](NC(=O)[C@H]1CC[C@H]2CC[C@@H](NC(=O)Cc3ccccc3)C(=O)N21)C(=O)N[C@@H](CC(=O)O)Cc1ccccc1 | – | – | inactive | –
3 | O=C(O)C[C@H](Cc1ccccc1)NC(=O)[C@H](Cc1cccnc1)NC(=O)[C@@H]1CCCN1C(=O)NNC(=O)Cc1ccccc1 (PhAc-[azaGly]P[3Pal][β3hF]-OH) | 37.5% | Active | Active | Activity [2]: inactive; inhibition [3]: inactive
4 | C#CCN(NC(=O)Cc1ccccc1)C(=O)N1CCC[C@H]1C(=O)N[C@@H](Cc1cccnc1)C(=O)N[C@H](CC(=O)O)Cc1ccccc1 | 56.7% | Active | Active | Activity [2]: inactive; inhibition [3]: inactive
5 | NC(=O)NCCC[C@H](NC(=O)[C@H]1CC[C@H]2CC[C@@H](NC(=O)Cc3ccccc3)C(=O)N21)C(=O)N[C@H](CC(=O)O)Cc1ccccc1 | – | – | inactive | –
6 | CC[C@@H](C)[C@@H](N)C(=O)N[C@H](CC(C)C)C(=O)NCC(=O)N[C@H](Cc1cnc[nH]1)C(=O)N[C@H](CCCNC(N)=O)C(=O)N[C@H](CC(=O)O)C(=O)N[C@H](Cc1ccc(O)cc1)C(=O)N[C@H](CCCCN)C(=O)O (H-[dI][dL]G[dH][dCit][dD][dY][dK]-OH) | – | – | – | inhibition [6]: > 85%; IC50 [7]: 13 nM; Time (Mus musculus [8]): 48 h; IC50 [9]: 13 nM; inhibition [10]: > 85%; inhibition [11]: > 85%; IC50 [12]: 13 nM
7 | O=C(O)C[C@H](Cc1ccccc1)NC(=O)[C@H](Cc1cccnc1)NC(=O)[C@@H]1CCC[C@@H]2CC[C@H](NC(=O)Cc3ccccc3)C(=O)N21 | – | – | inactive | –
8 | C=CCN(NC(=O)Cc1ccccc1)C(=O)N1CCC[C@H]1C(=O)N[C@@H](Cc1cccnc1)C(=O)N[C@H](CC(=O)O)Cc1ccccc1 | – | – | inactive | –
9 | CN(NC(=O)Cc1ccccc1)C(=O)N1CCC[C@H]1C(=O)N[C@@H](Cc1cccnc1)C(=O)N[C@H](CC(=O)O)Cc1ccccc1 | – | – | inactive | –
10 | CC[C@@H](C)[C@@H](N)C(=O)N[C@H](CC(C)C)C(=O)NCC(=O)N[C@H](Cc1cnc[nH]1)C(=O)N[C@H](CCCNC(=N)N)C(=O)N[C@H](CC(=O)O)C(=O)N[C@H](Cc1ccc(O)cc1)C(=O)N[C@H](CCCCN)C(=O)O (H-[dI][dL]G[dH][dR][dD][dY][dK]-OH) | – | – | – | inhibition at 100 µM [13]: > 80%; IC50 [14]: 340 nM
11 | O=C(O)C[C@H](Cc1ccccc1)NC(=O)[C@H](Cc1cccnc1)NC(=O)[C@@H]1CC[C@@H]2CC[C@H](NC(=O)Cc3ccccc3)C(=O)N21 | 40.3% | Active | Active | Time (Mus musculus [15]): 28 h; Time (Mus musculus [16]): 42 h
12 | O=C(O)C[C@H](Cc1ccccc1)NC(=O)[C@H](Cc1cccnc1)NC(=O)[C@@H]1CCC[C@@H]2C[C@H](NC(=O)Cc3ccccc3)C(=O)N21 | – | – | inactive | –
